Assay: Solubility in water of the amorphous form
Format: physicochemical

solubility in water: high solubility in water
Structure (SMILES): N[C@@H](CC(=O)N1CCn2c(nnc2C(F)(F)F)C1)Cc1cc(F)c(F)cc1F [Compound I, (2R)-4-oxo-4-[3-(trifluoromethyl)-5,6-dihydro[1,2,4]triazolo[4,3-α]pyrazin-7(8H)-yl]-1-(2,4,5-trifluorophenyl)butan-2-amine dihydrogenphosphate]
